{"source": "patent US11730707B2", "about": "“Compounds for treating von Hippel-Lindau disease” (CONSEJO SUPERIOR DE INVESTIGACIONES CIENTÍFICAS, priority 2017, dated 2023)", "key": {"[1]": {"system": "β2-adrenergic receptor over β1-adrenergic receptor", "conditions": "reported in literature; cited from earlier work"}, "[2]": {"system": "HIF transcriptional activity in HeLa 9XHRE cells", "experiment": "HRE-luciferase reporter assay under DFO chemical hypoxia", "assay_type": "cell-based, human", "conditions": "for luciferase activity induced by hypoxia (HIF transcriptional activity): 100 μM, 100 μM DFO", "description": "Angiogenesis is largely dependent of HIF transcription program, triggered in the presence of hypoxic condition, or as in the case of Von Hippel Lindau haemangioblastoma cells, due to the lack of VHL protein in charge of targeting HIF protein for its proteasome processing under normoxic conditions in wild type cells. A special peculiarity of hemangioblastoma cells, and clear cell kidney carcinoma cells, is that they constitutively express HIF protein, which is active, and is translocated to nucleus where it may bind and activates its gene targets such as: VEGF, PDGF, EPO, endoglin, several metalloproteases, carbonic anhydrase, Glut-1 and so on."}, "[3]": {"system": "hemangioblastoma primary cell cultures from VHL patients", "conditions": "both at 100 μM, 72 hours", "method": "HeLa 9XHRE cells were stably transfected with a HREluc reporter carrying nine copies in tandem of the hypoxia responsive element (HRE) followed by luciferase gene, and were cultured in DMEM (Dulbecco's Modified Eagle Medium, Gibco, Grand Island, N.Y., USA) supplemented with 10% fetal bovine serum (FBS; Gibco). To induce hypoxic conditions, HeLa cells were cultured with 100 μM desferrioxamine (DFO) (chemical hypoxia). […] Primary cultures of CNS hemangioblastoma were obtained according to the previously described by Albiñana et al., Orphanet J Rare Diseases, 2015, 10: 118.\nThe viability of hemangioblastoma and HeLa 9XHRE cells was measured with a CellTiter-Glo Luminescent Cell Viability Assay (Promega, Madison, Wis., USA). This is a homogeneous method to determine the number of viable cells in culture based on quantitation of the ATP present, which signals the presence of metabolically active cells. […] After treatment, plates were equilibrated to room temperature for 30 min before the addition of 100 μl of Cell Titer-Glo reagent (Lysis buffer, Ultra-Glo Recombinant Luciferase, Luciferine and Mg2+). Luminescence was measured using a Glomax Multidetection System (Promega)."}, "[4]": {"system": "BAX and CASP9 mRNA in hemangioblastoma cells", "experiment": "Real-time RT-PCR of proapoptotic genes", "assay_type": "cell-based, human", "conditions": "100 μM, 72 h; HB26 and HB11 hemangioblastoma cell culture", "method": "Total cellular RNA was extracted from hemangioblastoma cells using a Nucleo Spin RNA kit (Macherey-Nagel, Düren, Germany). One microgram of total RNA was reverse-transcribed in a final volume of 20 μl with the First Strand cDNA Synthesis Kit (Roche, Mannheim, Germany) using random primers. SYBR Green PCR system (BioRad, Hercules, Calif., USA) was used to carry out real-time PCR with an iQ5 system. Primers used for qPCR were: […]"}, "[5]": {"system": "VHL-derived hemangioblastoma cells (hemangiospheres)", "experiment": "Hemangiospheres formation and culture", "assay_type": "cell-based, human", "conditions": "100 μM, 7 days", "method": "VHL-derived hemangioblastoma cells were grown in suspension in phenol red free DMEM:F-12 medium with GlutaMAX, supplemented with B27, 20 ng/ml EGF, 20 ng/ml bFGF and 1% penicillin/streptomycin at 37° C. in 5% CO2. Single cell suspensions were plated at a density of 50.000 cells/ml in 75 cm^2 ultralow attachment flasks (Corning)."}, "HUVEC migration": {"system": "HUVEC migration", "experiment": "Wound healing assay", "assay_type": "cell-based, human", "conditions": "100 μM, 6 hours", "method": "FIG. 5. […] A. Functional in vitro tests for angiogenesis include “wound-healing” or plate-scratch, to follow the migration capacity of endothelial cells after short times. When a confluent monolayer is disrupted with the tip of a micropipette to create a discontinuity, endothelial cells normally migrate to cover the discontinuity “wound the healing” in a short time, depending on the size of the “wound” but normally, less than 8 hours. This test measures the migration by taking pictures at different times from the moment the wound is created. Only the final picture after 6 hours is shown. The migrated distance is quantified, and in the following graph the evolution is shown.\n(§1) In vitro-scratched wounds were created by scraping confluent HUVEC-1 monolayers in P-24 plate wells with sterile disposable pipet tips."}, "HUVECs tubulogenesis": {"system": "HUVECs tubulogenesis", "experiment": "Tube formation assay on Matrigel", "assay_type": "cell-based, human", "conditions": "100 μM, 3 hours", "description": "FIG. 6. […] Tubulogenesis is another in vitro test for angiogenesis. Endothelial cells cultured on matrigel have the property of building cell tube-like structures, which mimic the “vessels” structure. […] B. The number of closed cells (density network) is quantified and averaged from 5 different fields in each case. Bar histograms represent the mean±SD.\nas §1"}, "[6]": {"system": "primary cultures hemangioblastomas from patients (Vhl−/−)", "experiment": "Cell viability measure (CellTiter-Glo)", "assay_type": "cell-based, human", "conditions": "for viability (ATP content) of the VHL−/− cells: 72 hours, hemangioblastoma primary cultures 18, 14 and 786-O vs HUVEC, HMEC (FIG. 9)", "method": "(§2) Cell viability (cell proliferation, ATP content) was determined using the CellTiter-Glo Luminescent Cell Viability Assay kit (Promega) according to the supplier's instructions. […] Cell lysis was induced in an orbital shaker for 2 min, and then plates were incubated at room temperature for 10 min to stabilize the luminescent signal. Luminescence was measured using a GlomaxMultidetection System (Promega) Readings were normalized to control (100%)."}, "[7]": {"system": "human ccRCC Vhl−/− 786-O cell line", "experiment": "Cell viability measure (CellTiter-Glo)", "assay_type": "cell-based", "conditions": "72 hours, 0 to 250 μM", "method": "as §2, with “Endothelial cell lines (HUVECs and HMECs), human ccRCC Vhl−/− 786-O cell line, and primary cultures hemangioblastomas from patients (Hb14 and 18) were seeded in triplicate onto a 96-well plate (2×10^3 per well). […] Cell viability” for “Cell viability”"}, "HMEC": {"system": "HMEC", "experiment": "Cell viability measure (CellTiter-Glo)", "assay_type": "cell-based, human", "method": "as §2, with “Endothelial cell lines (HUVECs and HMECs), human ccRCC Vhl−/− 786-O cell line, and primary cultures hemangioblastomas from patients (Hb14 and 18) were seeded in triplicate onto a 96-well plate (2×10^3 per well). […] Cell viability” for “Cell viability”"}, "HUVEC": {"system": "HUVEC", "experiment": "Cell viability measure (CellTiter-Glo)", "assay_type": "cell-based, human", "method": "as §2, with “Endothelial cell lines (HUVECs and HMECs), human ccRCC Vhl−/− 786-O cell line, and primary cultures hemangioblastomas from patients (Hb14 and 18) were seeded in triplicate onto a 96-well plate (2×10^3 per well). […] Cell viability” for “Cell viability”"}, "[8]": {"system": "786-O Vhl−/− ccRCC xenograft", "assay_type": "in vivo", "conditions": "10 mg/Kg daily intraperitoneally; 50-60 days after the cell inoculation", "method": "FIG. 10. Xenografts of 786-O Vhl−/− human ccRCC cells in mice. Male 7-8 weeks old NOD scid gamma (NSG) mice were injected in the dorsal flank with a single cell suspension of 10^6 786-O cells. When tumor size reached 100 mm3 volume, mice were randomly divided in 3 groups, of 9/10 mice each. […] Tumor size was measured by a caliper every 2-3 days and volumes were calculated following the formula: shortest^2×largest×0.52. Mice were sacrificed when tumor volume average of the control group reached an end point established based on ethical procedures. Arrow marks the beginning of the treatment.\nMale 7-8 weeks old NOD scid gamma (NSG) mice were injected in the dorsal flank with a single cell suspension of […] 786-O cells. When tumor size reached 100 mm^3 volume, mice were randomly divided in 3 groups, of 9/10 mice each. […] Tumor size was measured by a caliper every 2-3 days and volumes were calculated following the formula: shortest 2×largest×0.52. Mice were sacrificed when tumor volume average of the control group reached an end point established according to ethical procedures"}, "retina hemangioblastomas": {"system": "retina hemangioblastomas", "conditions": "cited from earlier work"}}, "note": "Entries after “also recorded” stand apart in the source; their conditions may differ. Structures can show the parent of a compound that is named as a salt."}
{"smiles": "COc1ccc(OC)c(C(O)C(C)NC(C)(C)C)c1", "note": "(racemic) [butoxamine, DL-erythro-α-(2,5-dimethoxyphenyl)-β-t-butyl aminopropanol hydrochloride]", "values": [{"measurement": "β2/β1 selectivity ratio", "setting": "[1]", "result": "at least 17"}]}
{"smiles": "CC(C)NCC(O)COc1ccc(CC(N)=O)cc1", "note": "(stereo not shown) [Atenolol]", "values": [{"measurement": "luciferase activity induced by hypoxia (HIF transcriptional activity)", "setting": "[2]", "result": "less significant"}, {"measurement": "luciferase activity induced by hypoxia (HIF transcriptional activity)", "setting": "[2]; listed as atenolol", "result": "hardly reduced the hypoxia stimulation"}]}
{"smiles": "Cc1ccc(OCC(O)C(C)NC(C)C)c2c1CCC2", "note": "[ICI 118,551, erythro-D,L-1(methylinden-4-yloxy)-3-isopropylaminobutan-2-ol]", "values": [{"measurement": "effect on viability compared with propranolol", "setting": "[3]", "result": "superior to propranolol"}, {"measurement": "Bax mRNA expression (RT-qPCR)", "setting": "[4]", "result": "significantly upregulated; also recorded: increased"}, {"measurement": "Caspase 9 mRNA expression (RT-qPCR)", "setting": "[4]", "result": "significantly upregulated; also recorded: increased"}, {"measurement": "hemangiosphere formation", "setting": "[5]", "result": "hemangiospheres are disrupted; also recorded: the spheres appear disaggregated"}, {"measurement": "cell migration (closure of the discontinuity)", "setting": "HUVEC migration", "result": "delay the closure of the discontinuity; also recorded: delay cell migration"}, {"measurement": "tubulogenesis (number of closed structures)", "setting": "HUVECs tubulogenesis", "result": "dramatically decreased; also recorded: significantly inhibit the tubulogenesis"}, {"measurement": "luciferase activity induced by hypoxia (HIF transcriptional activity)", "setting": "[2]", "result": "reduced practically to “0”"}, {"measurement": "luciferase activity induced by hypoxia (HIF transcriptional activity)", "setting": "[2]; listed as ICI", "result": "prevented hypoxia stimulation"}, {"measurement": "luciferase activity induced by hypoxia (HIF transcriptional activity)", "setting": "[2]; listed as ICI118,551", "result": "extremely reduced"}, {"measurement": "hypoxia stimulation induced by DFO (relative luciferase activity)", "setting": "[2]; 50 or 100 μMolar, 24 h, DFO 100 μMolar simultaneously", "result": "inhibits the hypoxia stimulation induced by DFO"}, {"measurement": "effect on HIF luciferase activity compared with propranolol", "setting": "[2]; equal dose", "result": "clearly superior to propranolol"}, {"measurement": "viability (ATP content) of the VHL−/− cells", "setting": "[6]", "result": "decrease, in a dose-dependent manner and with higher specificity"}, {"measurement": "viability at 100 µM", "setting": "[6]; Homo sapiens, Haemangioblastoma (HB) cells, 100 μM (FIG. 11)", "result": 20, "unit": "%"}, {"measurement": "LD50", "setting": "[7]", "result": 100, "unit": "µM"}, {"measurement": "decrease in viability", "setting": "HMEC; HMEC-1, 100 μM (FIG. 11)", "result": 55, "unit": "%"}, {"measurement": "LD50", "setting": "HMEC; HMEC, 72 hours, 0 to 250 μM", "result": "around 150 μM"}, {"measurement": "decrease in viability", "setting": "HUVEC; 100 μM (FIG. 11)", "result": 80, "unit": "%"}, {"measurement": "LD50", "setting": "HUVEC; 72 hours, 0 to 250 μM", "result": "around 150 μM"}, {"measurement": "decrease of the size tumor versus vehicle treated mice", "setting": "[8]", "result": "around 30%"}, {"measurement": "β2/β1 selectivity ratio", "setting": "[1]", "result": "at least 50"}]}
{"smiles": "CC(C)NCC(O)COc1cccc2ccccc12", "note": "(stereo not shown) [Propranolol]", "values": [{"measurement": "hemangiosphere formation", "setting": "[5]", "result": "hemangiospheres are disrupted; also recorded: the spheres appear disaggregated"}, {"measurement": "cell migration (closure of the discontinuity)", "setting": "HUVEC migration", "result": "delay the closure of the discontinuity; also recorded: delay cell migration"}, {"measurement": "tubulogenesis (number of closed structures)", "setting": "HUVECs tubulogenesis", "result": "dramatically decreased; also recorded: significantly inhibit the tubulogenesis"}, {"measurement": "luciferase activity induced by hypoxia (HIF transcriptional activity)", "setting": "[2]", "result": "dampened; also recorded: prevented hypoxia stimulation"}, {"measurement": "luciferase activity induced by hypoxia (HIF transcriptional activity)", "setting": "[2]; listed as propranolol", "result": "extremely reduced"}, {"measurement": "viability (ATP content) of the VHL−/− cells", "setting": "[6]", "result": "decrease, in a dose-dependent manner and with higher specificity"}, {"measurement": "decrease of the size tumor versus vehicle treated mice", "setting": "[8]", "result": "around 30%"}, {"measurement": "tumor growth during the clinical trial", "setting": "retina hemangioblastomas; 120 mg a day, 12 months, 7 VHL patients", "result": "did not grow in any case"}, {"measurement": "visual acuity", "setting": "retina hemangioblastomas; 120 mg a day, 12 months", "result": "in some cases visual acuity increased"}, {"measurement": "side effect", "setting": "retina hemangioblastomas; 120 mg a day", "result": "Low blood pressure"}, {"measurement": "exudates from the hemangioblastomas", "setting": "retina hemangioblastomas; 2 cases, between 3 and 6 months of treatment", "result": "disappeared completely"}]}
